Reference: publication PMC4424558, “Antimicrobial and antioxidant flavonoids from the leaves of Oncoba spinosa Forssk. (Salicaceae)” (BMC Complementary and Alternative Medicine, 2015)
Converted amounts (≈) assume the structure as drawn. Like-named read-outs stand apart in the source and are kept apart here.

Experiments:
[1] = test system: Enterobacter aerogenes ATCC13048; assay: Broth microdilution MIC/MBC against Enterobacter aerogenes ATCC13048; type: cell-based; details: for MBC / MIC: Klebsiella aerogenes; for MIC: 37°C, 24 h
Protocol: (§1) The studied microorganisms were both reference (from the American Type Culture Collection) and clinical (from Pasteur Institute Paris, France) strains of Enterobacter aerogenes, Escherichia coli, Klebsiella pneumoniae, Candida albicans, and Cryptococcus neoformans. Also, included were two clinical isolates of Candida parapsilosis and Staphylococcus aureus collected from Pasteur Centre (Yaoundé-Cameroon). The bacterial and fungal species were grown at 37°C and maintained on nutrient agar (NA, Conda, Madrid, Spain) and Sabouraud Dextrose Agar (SDA, Conda) slants respectively.
(§2) The inocula of yeasts and bacteria were prepared from overnight cultures by picking numerous colonies and suspending them in sterile saline (NaCl) solution (0.90%). Absorbance was read at 530 nm for yeasts or at 600 nm for bacteria and adjusted with the saline solution to match that of a 0.50 McFarland standard solution. From the prepared microbial solutions, other dilutions with saline solution were prepared to give a final concentration of 10^6 yeast cells/ml and 10^6 CFU/ml for bacteria.
(§3) The antimicrobial activity was investigated by determining the minimum inhibitory concentrations (MICs), minimum bactericidal concentrations (MBCs) and minimum fungicidal concentrations (MFCs).
(§4) MICs were determined by broth micro dilution. Stock solutions of the tested samples were prepared in 10% v/v aqueous dimethylsulfoxide (DMSO) solution (Fisher chemicals, Strasbourg, France) at concentration of 4096 μg/ml. This was two-fold serially diluted in Mueller-Hinton Broth (MHB) for bacteria and Sabouraud Dextrose Broth (SDB) for fungi to obtain a concentration range of 2048 to 0.25 μg/ml. For every experiment, a sterility check (10% aqueous DMSO and medium), negative control (10% aqueous DMSO, medium and inoculum) and positive control (10% aqueous DMSO, medium, inoculum and water-soluble antibiotics) were included. One hundred microliters of each concentration was introduced into a well (96-wells microplate) containing 90 μl of SDB or MHB and 10 μl of inoculum was added to obtain a final concentration range of 4096 to 0.125 μg/ml. The plates were covered with a sterile lid, and incubated on the shaker at 37°C for 24 h (bacteria) and 48 h (yeasts). MICs were assessed visually after the corresponding incubation period and were taken as the lowest sample concentration at which there was no growth or virtually no growth. The assay was repeated thrice.
(§5) The lowest concentration that yielded no growth after the sub-culturing was taken as the MBCs or MFCs. Chloramphenicol (Sigma-Aldrich, Steinheim, Germany) for bacteria and nystatin (Sigma-Aldrich, Steinheim, Germany) for yeasts were used as positive controls.

[2] = test system: Escherichia coli ATCC8739; assay: Broth microdilution MIC/MBC against Escherichia coli ATCC8739; type: cell-based; details: for MIC: 37°C, 24 h
Protocol: as §1, §2, §3, §4, §5

[3] = test system: Klebsiella pneumoniae ATCC11296; assay: Broth microdilution MIC/MBC against Klebsiella pneumoniae ATCC11296; type: cell-based; details: for MIC: 37°C, 24 h
Protocol: as §1, §2, §3, §4, §5

Staphylococcus aureus = assay: Broth microdilution MIC/MBC against Staphylococcus aureus; type: cell-based; details: Staphylococcus aureus clinical isolate; for MIC: 37°C, 24 h
Protocol: as §1, §2, §3, §4, §5

Candida parapsilosis = assay: Broth microdilution MIC/MFC against Candida parapsilosis; type: cell-based; details: Candida parapsilosis clinical isolate; for MIC: 37°C, 48 h
Protocol: as §1, §2, §3, §4, §5

[4] = test system: Candida albicans ATCC 9002; assay: Broth microdilution MIC/MFC against Candida albicans ATCC 9002; type: cell-based; details: for MIC: 48 h
Protocol: as §1, §2, §3, §4, §5

[5] = test system: Cryptococcus neoformans IP 90526; assay: Broth microdilution MIC/MFC against Cryptococcus neoformans IP 90526; type: cell-based; details: for MIC: 48 h
Protocol: as §1, §2, §3, §4, §5

fungi = assay: Broth microdilution, fungal strains (panel summary); type: cell-based; details: range over the fungal strains
Protocol: as §1, §2, §3
as §4, with “One hundred microliters of each concentration was introduced into a well (96-wells microplate) containing 90 μl of SDB or MHB and 10 μl of inoculum was added to obtain a final concentration range of 4096 to 0.125 μg/ml. The plates were covered with a sterile lid, and incubated on the shaker at 37°C for 24 h (bacteria) and 48 h (yeasts).” left out, “The assay was repeated thrice.” left out

[6] = test system: bacterial and fungal species; assay: Broth microdilution, all studied microorganisms (panel summary); type: cell-based; details: for studied microorganisms on which inhibitory effects were noted: out of 7 studied microorganisms
Protocol: as §1, §2, §3, §4, §5

[7] = DPPH free radical scavenging assay; type: biochemical; details: 30 min, room temperature, 517 nm
Protocol: The free radical scavenging activity of the MeOH extract as well as some of its isolated compounds was evaluated according to described methods with slight modifications. Briefly, the test samples, prior dissolved in DMSO (SIGMA) beforehand, were mixed with a 20 mg/l 2,2-diphenyl-1-picryl-hydrazyl (DPPH) methanol solution, to give final concentrations of 10, 50, 100, 500 and 1000 μg/ml. After 30 min at room temperature, the absorbance values were measured at 517 nm and converted into percentage of antioxidant activity. L-ascorbic acid was used as a standard control. The percentage of decolouration of DPPH (%) was calculated as follows: %decolourationofDPPH=Absorbanceofcontrol−Absorbanceoftestsample)×100/Absorbanceofcontrol
The percentage of decolouration of DPPH (%) was plotted against the test sample. Also, the percentage of decolouration of DPPH was converted in probits. The probit values were plotted against the logarithmic values of concentrations of the test samples and a linear regression curve was established in order to calculate the EC50 (μg/ml), which is the amount of sample necessary to decrease by 50% the absorbance of DPPH [11]. All the analyses were carried out in triplicate.

[8] = Trolox equivalent antioxidant capacity (TEAC) assay; type: biochemical; details: ABTS/laccase, 420 nm, 230 s; 20 μg/ml isolated compounds, 10-400 μg/ml MeOH extract; gallic acid equivalents
Protocol: The TEAC test was done as previously described with slight modifications. In a quartz cuvette, to 950 μl acetate buffer (pH = 5.0, 100 mM), the following were added: 20 μl laccase (1 mM stock solution), 20 μl test sample, 10 μl ABTS (2,2′-azinobis(3-ethylbenzothiazoline-6-sulfonic acid)) (74 mM stock solution). The laccase were purified from Sclerotinia sclerotiorum according to the protocol described. The sample concentrations in the assay mixture were 400, 200, 100, 10 μg/ml for the MeOH extract and 20 μg/ml for the isolated compounds. The content of the generated ABTS^●+ radical was measured at 420 nm after 230 s reaction time and was converted to gallic acid equivalents by the use of a calibration curve (Pearson’s correlation coefficient: r = 0.998) constructed with 0, 4, 10, 14, 28, 56, 84 μM gallic acid standards rather than Trolox. Experiments were done in triplicate.

bacteria = assay: Broth microdilution, bacterial strains (panel summary); type: cell-based; details: range over the bacterial strains
Protocol: as §1
The inocula of yeasts and bacteria were prepared from overnight cultures by picking numerous colonies and suspending them in sterile saline (NaCl) solution (0.90%). Absorbance was read at 530 nm for yeasts or at 600 nm for bacteria and adjusted with the saline solution to match that of a 0.50 McFarland standard solution. From the prepared microbial solutions, other dilutions with saline solution were prepared to give a final concentration of 10^6 yeast cells/ml and 10^6 CFU/ml for bacteria. […]
MICs were determined by broth micro dilution. […] MICs were assessed visually after the corresponding incubation period and were taken as the lowest sample concentration at which there was no growth or virtually no growth. […]

[9] = Lodderomyces parapsilosis, read-out: MIC
[10] = Lodderomyces parapsilosis, read-out: MFC

| SMILES | MBC/MIC [1] | MBC [1] [µg/mL] | MIC [1] [µg/mL] | MBC [2] [µg/mL] | MBC/MIC [2] | MIC [2] [µg/mL] | MBC [3] [µg/mL] | MBC/MIC [3] | MIC [3] [µg/mL] | MBC (Staphylococcus aureus) [µg/mL] | MIC (Staphylococcus aureus) [µg/mL] | MFC/MIC (Candida parapsilosis) | MIC (Candida parapsilosis; [9]) [µg/mL] | MFC (Candida parapsilosis; [10]) [µg/mL] | MFC/MIC [4] | MIC ([4]; ATCC9002, 37°C, read-out: MIC) [µg/mL] | MFC/MIC [5] | MIC ([5]; IP90526, 37°C, read-out: MIC) [µg/mL] | MFC ([5]; IP90526, read-out: MFC) [µg/mL] | EC50, concentration scavenging 50% of DPPH radical [7] [µg/mL] | further results |
| --- | --- | --- | --- | --- | --- | --- | --- | --- | --- | --- | --- | --- | --- | --- | --- | --- | --- | --- | --- | --- | --- |
| O=c1c(O)c(-c2ccc(O)c(O)c2)oc2cc(O)cc(O)c12 [Compound 2, quercetin] | 1 | 64 (≈ 212 µM) | 64 (≈ 212 µM) | 256 (≈ 847 µM) | 2 | 128 (≈ 424 µM) | 64 (≈ 212 µM) | 1 | 64 (≈ 212 µM) | > 256 | 256 (≈ 847 µM) | 1 | 64 (≈ 212 µM) | 64 (≈ 212 µM) | 1 | 128 (≈ 424 µM) | 1 | 64 (≈ 212 µM) | 64 (≈ 212 µM) | 5.08 | MFC ([4]; ATCC9002, read-out: MFC): 128 µg/mL (≈ 424 µM); MIC (range over fungi) (fungi): 64 to 128 µg/mL; activity against all the microbial strains (in words) [6]: active against all the microbial strains; studied microorganisms on which inhibitory effects were noted [6]: 7/7; Gallic acid equivalent antioxidant capacity (TEAC) [8]: 89.86 µg/mL |
| O=C(O)[C@H]1O[C@@H](Oc2cc(O)c3c(=O)cc(-c4ccc(O)cc4)oc3c2)[C@H](O)[C@@H](O)[C@@H]1O [Compound 3, apigenin-7-O-β-D-glucuronopyranoside] | 1 | 128 (≈ 287 µM) | 128 (≈ 287 µM) |  |  | > 256 | 256 (≈ 574 µM) | 1 | 256 (≈ 574 µM) |  | > 256 | 2 | 64 (≈ 143 µM) | 128 (≈ 287 µM) |  | > 256 | 1 | 128 (≈ 287 µM) | 128 (≈ 287 µM) | 29.16 | studied microorganisms on which inhibitory effects were noted [6]: 4/7 |
| O=c1c(O[C@@H]2O[C@H](CO)[C@H](O)[C@H](O)[C@H]2O)c(-c2ccc(O)c(O)c2)oc2cc(O)cc(O)c12 [Compound 4, quercetin 3-O-β-D-galactopyranoside] | 2 | 64 (≈ 138 µM) | 32 (≈ 68.9 µM) | 128 (≈ 276 µM) | 1 | 128 (≈ 276 µM) | 64 (≈ 138 µM) | 2 | 32 (≈ 68.9 µM) | 128 (≈ 276 µM) | 128 (≈ 276 µM) | 2 | 128 (≈ 276 µM) | 256 (≈ 551 µM) | 1 | 256 (≈ 551 µM) | 1 | 128 (≈ 276 µM) | 128 (≈ 276 µM) | 13.44 | MBC/MIC (Staphylococcus aureus): 1; MFC ([4]; ATCC9002, read-out: MFC): 256 µg/mL (≈ 551 µM); activity against all the microbial strains (in words) [6]: active against all the microbial strains; studied microorganisms on which inhibitory effects were noted [6]: 7/7; Gallic acid equivalent antioxidant capacity (TEAC) [8]: 72.95 µg/mL |
| O=C(N[C@H](CO)[C@H](O)c1ccc([N+](=O)[O-])cc1)C(Cl)Cl [chloramphenicol, Chloramphenicol, reference compound] | 1 | 64 (≈ 198 µM) | 64 (≈ 198 µM) | 64 (≈ 198 µM) | 1 | 64 (≈ 198 µM) | 16 (≈ 49.5 µM) | 1 | 16 (≈ 49.5 µM) | 64 (≈ 198 µM) | 64 (≈ 198 µM) |  |  |  |  |  |  |  |  |  | MBC/MIC (Staphylococcus aureus): 1; MIC (range over bacteria) (bacteria): 16 to 64 µg/mL |
| C[C@@H]1[C@H](O)[C@@H](C)/C=C/C=C/CC/C=C/C=C/C=C/C=C/C(O[C@H]2O[C@H](C)[C@@H](O)[C@H](N)[C@@H]2O)CC2O[C@](O)(CC(O)C(O)CCC(O)CC(O)CC(O)CC(=O)O[C@H]1C)CC(O)C2C(=O)O (stereo partly shown) [nystatin, reference compound] |  |  |  |  |  |  |  |  |  |  |  | 1 |  |  | 1 |  | 2 |  |  |  | MFC (Candida parapsilosis): 256 µg/mL (≈ 276 µM); MIC (Candida parapsilosis): 256 µg/mL (≈ 276 µM); MFC [4]: 128 µg/mL (≈ 138 µM); MIC ([4]; 37°C): 128 µg/mL (≈ 138 µM); MFC [5]: 256 µg/mL (≈ 276 µM); MIC ([5]; 37°C): 128 µg/mL (≈ 138 µM); MIC (range over fungi) (fungi): 128 to 256 µg/mL |
| O=C1O[C@H]([C@@H](O)CO)C(O)=C1O [vitamin C, L-ascorbic acid, reference compound] |  |  |  |  |  |  |  |  |  |  |  |  |  |  |  |  |  |  |  | 4.72 |  |
